Consider 3 molecules from ChEMBL document CHEMBL3227983, “N-Acetimidoyl- and N-formimidoylthienamycin derivatives: antipseudomonal beta-lactam antibiotics” (J Med Chem, 1979).

In data set [1] the test system is Enterobacter cloacae. In words: Antibacterial activity against penicillin-resistant Enterobacter cloacae MB2646 at 25 ug/disk. It counts as functional. Conditions: read-out: DIZ.
Data set [2] can be described thus: Stability of the compound in amorphous form assessed as compound remaining after 5 months at 60 mg/ml at 23 degC in presence of 0.1 equiv of NaHCO3. The class given is physicochemical. Conditions: read-out: Stability.
Data set [3] in a line: Stability of the compound in amorphous form in deionized water assessed as time at which 90% of initial UV-absorbance remains at 60 mg/ml at 23 degC. It counts as physicochemical. Conditions: buffer.
Data set [4] concerns Staphylococcus aureus. Briefly: Antibacterial activity against penicillin-sensitive Staphylococcus aureus MB2985 at 25 ug/disk. It counts as functional. Conditions: read-out: DIZ.
For data set [5], the system named is Escherichia coli. Briefly: Antibacterial activity against penicillin-sensitive Escherichia coli MB2482 at 25 ug/disk. Conditions: read-out: DIZ. It counts as functional.
A short description of data set [6]: Drug degradation in crystalline form at 10 mg/ml. It counts as physicochemical. Particulars: read-out: Drug degradation.
In data set [7] the test system is Escherichia coli. Briefly: Antibacterial activity against penicillin-resistant Escherichia coli MB2964 at 25 ug/disk. It counts as functional. Particulars: read-out: DIZ.
Data set [8] deals with Pseudomonas aeruginosa. In words: Antibacterial activity against penicillin-resistant Pseudomonas aeruginosa MB3350 at 25 ug/disk. It counts as functional. Particulars: read-out: DIZ.
In data set [9] the test system is Enterobacter cloacae. Briefly: Antibacterial activity against penicillin-sensitive Enterobacter cloacae MB2647 at 25 ug/disk. It counts as functional. Conditions: read-out: DIZ.
Data set [10] in a line: Stability of the compound in amorphous form in 1 M PO4 assessed as time at which 90% of initial UV-absorbance remains at 60 mg/ml at pH 7 at 23 degC. The class given is physicochemical. Conditions: buffer.
The subject of data set [11] is Staphylococcus aureus. In words: Antibacterial activity against penicillin-resistant Staphylococcus aureus MB2314 at 25 ug/disk. Conditions: read-out: DIZ. The class given is functional.
Data set [12] has as its system Pseudomonas aeruginosa. In words: Antibacterial activity against penicillin-sensitive Pseudomonas aeruginosa MB2835 at 25 ug/disk. Particulars: read-out: DIZ. It counts as functional.
A short description of data set [13]: Stability of the compound in amorphous form assessed as compound remaining after 6 months at 60 mg/ml at 23 degC in presence of 0.1 equiv of NaHCO3. The class given is physicochemical. Particulars: read-out: Stability.
A short description of data set [14]: Stability of the compound in crystalline form in deionized water assessed as time at which 90% of initial UV-absorbance remains at 10 mg/ml at 23 degC. It counts as physicochemical. Conditions: buffer.
Data set [15] is described as follows: Stability of the compound in crystalline form assessed as compound remaining after 6 months at 10 mg/ml at 23 degC in presence of 0.1 equiv of NaHCO3. It counts as physicochemical. Particulars: read-out: Stability.
Data set [16] is described as follows: Stability of the compound in amorphous form assessed as compound remaining after 1 month at 60 mg/ml at 23 degC in presence of 0.1 equiv of NaHCO3. The class given is physicochemical. Particulars: read-out: Stability.

With `CC(=N)NCCSC1=C(C(=O)O)N2C(=O)[C@H]([C@@H](C)O)[C@H]2C1`, the zone of inhibition at 25 µg/disc in the data set on Enterobacter cloacae [1] is 27 mm; with Staphylococcus aureus [4], 38.5 mm; with Escherichia coli [5], 28 mm; in the data set on Escherichia coli [7] it was 29.5 mm; with Pseudomonas aeruginosa [8], 28 mm; with Enterobacter cloacae [9], 27 mm. Also, the zone of inhibition at 25 µg/disc in the data set with Staphylococcus aureus [11] was found to be 40 mm; in the data set with Pseudomonas aeruginosa [12], 28 mm. Also, the remaining at 3652.5 h, 60 mg/ml in data set [2] is 100%. The Time in [3] turned out to be 5 h; in data set [10], 0.5 h. The degraded at 10 mg/ml in data set [6] is under 1%.

On to `C[C@@H](O)[C@H]1C(=O)N2C(C(=O)O)=C(SCCN=CN)C[C@H]12` [IMIPENEM ANHYDROUS], for which the zone of inhibition at 25 µg/disc in the data set on Enterobacter cloacae [1] came out at 27.5 mm; with Staphylococcus aureus [4], 40 mm; with Escherichia coli [5] it was 28.5 mm; with Escherichia coli [7], 29.5 mm; in the data set with Pseudomonas aeruginosa [8], 29 mm; in the data set on Enterobacter cloacae [9], 27 mm. Besides, the zone of inhibition at 25 µg/disc in the data set with Staphylococcus aureus [11] is 40.5 mm; in the data set on Pseudomonas aeruginosa [12], 29 mm. For the same molecule, the Time in [3] worked out at 2.5 h; in data set [14], 17 h; in data set [10], 0.5 h. In addition, in data set [13], the remaining at 4383 h, 60 mg/ml was 80%. In addition, the remaining at 4383 h, 10 mg/ml in [15] came to 100%.

As for `C[C@@H](O)[C@H]1C(=O)N2C(C(=O)O)=C(SCCN)C[C@H]12` [THIENAMYCIN], the zone of inhibition at 25 µg/disc in the data set with Enterobacter cloacae [1] came out at 27 mm; in the data set on Staphylococcus aureus [4], 40 mm; with Escherichia coli [5] it was 28.5 mm; in the data set with Escherichia coli [7] it was 29 mm; in the data set on Pseudomonas aeruginosa [8], 26 mm; with Enterobacter cloacae [9], 25.5 mm. Also, the zone of inhibition at 25 µg/disc with Staphylococcus aureus [11] was 41 mm; with Pseudomonas aeruginosa [12], 26 mm. In addition, the Time in [3] and in data set [10] was 0.5 h in each case. The remaining at 730.5 h, 60 mg/ml in data set [16] is 80%.
